Measurements as given in ChEMBL document CHEMBL5465560, “Selectivity Literature for EUbOPEN Chemogenomic Library” (2024).

Experiments:
[1] = target: Homeodomain-interacting protein kinase 2 (Homo sapiens, UniProt Q9H2X6); assay: Selectivity interaction (KinomeScan (DiscoverX)) EUB0001049a HIPK2; conditions: at 1 µM
[2] = target: T1, Serine/threonine-protein kinase TAO3 (Homo sapiens) (UniProt Q9H2K8); assay: Selectivity interaction (KinomeScan (DiscoverX)) EUB0000666a TAOK3; conditions: at 10 µM
T1 sequence (whole entry): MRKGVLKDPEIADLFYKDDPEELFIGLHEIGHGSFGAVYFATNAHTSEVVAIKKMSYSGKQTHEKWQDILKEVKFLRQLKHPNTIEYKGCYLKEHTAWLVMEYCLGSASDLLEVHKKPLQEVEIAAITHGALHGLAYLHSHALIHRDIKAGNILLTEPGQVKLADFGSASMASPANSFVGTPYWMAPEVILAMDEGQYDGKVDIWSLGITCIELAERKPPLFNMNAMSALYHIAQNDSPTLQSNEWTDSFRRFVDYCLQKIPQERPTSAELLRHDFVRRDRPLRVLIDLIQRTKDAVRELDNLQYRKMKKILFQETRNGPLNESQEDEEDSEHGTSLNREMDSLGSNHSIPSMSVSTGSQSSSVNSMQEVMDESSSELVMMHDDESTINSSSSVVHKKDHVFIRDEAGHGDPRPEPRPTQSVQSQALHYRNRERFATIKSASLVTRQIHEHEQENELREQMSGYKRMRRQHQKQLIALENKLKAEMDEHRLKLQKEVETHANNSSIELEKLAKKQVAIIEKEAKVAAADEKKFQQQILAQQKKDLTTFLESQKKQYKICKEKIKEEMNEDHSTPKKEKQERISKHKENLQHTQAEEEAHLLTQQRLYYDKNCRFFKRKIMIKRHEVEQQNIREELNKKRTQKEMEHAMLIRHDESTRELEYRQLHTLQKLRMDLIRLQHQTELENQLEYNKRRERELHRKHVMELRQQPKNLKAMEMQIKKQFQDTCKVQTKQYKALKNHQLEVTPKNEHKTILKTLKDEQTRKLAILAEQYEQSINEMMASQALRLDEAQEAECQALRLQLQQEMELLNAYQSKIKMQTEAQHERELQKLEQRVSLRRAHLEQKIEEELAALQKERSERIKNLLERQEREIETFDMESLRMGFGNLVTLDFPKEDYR

[3] = target: T2, Dual specificity mitogen-activated protein kinase kinase 7 (Homo sapiens) (UniProt O14733); assay: Selectivity interaction (KinomeScan (DiscoverX)) EUB0001079a MAP2K7; conditions: at 1 µM
T2 sequence (whole entry): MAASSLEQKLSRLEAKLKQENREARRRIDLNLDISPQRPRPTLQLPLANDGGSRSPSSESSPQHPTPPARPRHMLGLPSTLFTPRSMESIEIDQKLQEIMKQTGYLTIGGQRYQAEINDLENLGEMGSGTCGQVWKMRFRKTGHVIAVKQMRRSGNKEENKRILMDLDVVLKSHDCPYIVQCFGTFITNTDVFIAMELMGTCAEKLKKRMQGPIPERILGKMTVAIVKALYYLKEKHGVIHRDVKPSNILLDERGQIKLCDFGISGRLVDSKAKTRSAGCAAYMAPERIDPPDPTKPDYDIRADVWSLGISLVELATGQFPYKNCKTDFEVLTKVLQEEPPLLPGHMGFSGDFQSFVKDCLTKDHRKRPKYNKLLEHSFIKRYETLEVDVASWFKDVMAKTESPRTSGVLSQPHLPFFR

[4] = system: Proto-oncogene tyrosine-protein kinase receptor Ret (Homo sapiens), P07949 [M918T]; assay: (§1) Selectivity interaction (KinomeScan (DiscoverX)) EUB0001079a RET; conditions: at 1 µM
Chain of Proto-oncogene tyrosine-protein kinase receptor Ret (Homo sapiens), P07949 [M918T] (P07949 whole entry M918T): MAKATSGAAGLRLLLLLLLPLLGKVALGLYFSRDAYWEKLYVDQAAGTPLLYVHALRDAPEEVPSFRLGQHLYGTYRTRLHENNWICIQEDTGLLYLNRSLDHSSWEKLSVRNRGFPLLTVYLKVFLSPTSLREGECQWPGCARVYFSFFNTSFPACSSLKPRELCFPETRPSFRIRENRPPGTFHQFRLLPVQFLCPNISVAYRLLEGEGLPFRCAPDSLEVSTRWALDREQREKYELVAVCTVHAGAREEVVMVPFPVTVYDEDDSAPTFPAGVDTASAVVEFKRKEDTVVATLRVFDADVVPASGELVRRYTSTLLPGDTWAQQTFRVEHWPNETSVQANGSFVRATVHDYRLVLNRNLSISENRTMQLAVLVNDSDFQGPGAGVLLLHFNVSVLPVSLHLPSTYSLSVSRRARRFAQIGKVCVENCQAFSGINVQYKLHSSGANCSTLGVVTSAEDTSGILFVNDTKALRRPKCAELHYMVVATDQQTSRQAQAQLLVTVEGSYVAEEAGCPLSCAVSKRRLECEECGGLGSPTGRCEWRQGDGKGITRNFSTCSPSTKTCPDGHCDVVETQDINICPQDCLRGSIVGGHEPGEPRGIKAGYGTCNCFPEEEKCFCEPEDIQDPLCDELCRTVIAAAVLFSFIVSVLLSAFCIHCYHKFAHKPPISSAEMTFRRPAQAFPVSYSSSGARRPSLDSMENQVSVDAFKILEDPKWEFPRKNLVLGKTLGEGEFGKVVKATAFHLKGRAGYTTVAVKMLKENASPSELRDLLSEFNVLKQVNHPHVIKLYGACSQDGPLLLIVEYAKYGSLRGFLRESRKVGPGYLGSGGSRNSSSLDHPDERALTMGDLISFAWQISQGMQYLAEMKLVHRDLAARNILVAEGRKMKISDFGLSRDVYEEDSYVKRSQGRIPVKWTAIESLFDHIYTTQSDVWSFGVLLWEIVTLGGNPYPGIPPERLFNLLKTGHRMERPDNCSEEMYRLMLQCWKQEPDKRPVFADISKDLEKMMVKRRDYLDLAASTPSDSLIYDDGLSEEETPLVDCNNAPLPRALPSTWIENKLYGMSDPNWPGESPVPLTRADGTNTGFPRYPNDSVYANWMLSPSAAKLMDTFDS

[5] = system: Proto-oncogene tyrosine-protein kinase receptor Ret (Homo sapiens), P07949 [V804L]; assay: as §1; conditions: at 1 µM
Chain of Proto-oncogene tyrosine-protein kinase receptor Ret (Homo sapiens), P07949 [V804L] (P07949 whole entry V804L): as the sequence (P07949 whole entry M918T) above, with V804L, T918M counted along it

[6] = system: Proto-oncogene tyrosine-protein kinase receptor Ret (Homo sapiens), P07949 [V804M]; assay: as §1; conditions: at 1 µM
Chain of Proto-oncogene tyrosine-protein kinase receptor Ret (Homo sapiens), P07949 [V804M] (P07949 whole entry V804M): as the sequence (P07949 whole entry M918T) above, with V804M, T918M counted along it

[7] = target: Proto-oncogene tyrosine-protein kinase receptor Ret (Homo sapiens, UniProt P07949); assay: as §1; conditions: at 1 µM
Chain of Proto-oncogene tyrosine-protein kinase receptor Ret (P07949 whole entry): as the sequence (P07949 whole entry M918T) above, with T918M counted along it

[8] = target: T3, Dual specificity mitogen-activated protein kinase kinase 5 (Homo sapiens) (UniProt Q13163); assay: Selectivity interaction (KinomeScan (DiscoverX)) EUB0000092b MAP2K5; conditions: at 10 µM
T3 sequence (whole entry): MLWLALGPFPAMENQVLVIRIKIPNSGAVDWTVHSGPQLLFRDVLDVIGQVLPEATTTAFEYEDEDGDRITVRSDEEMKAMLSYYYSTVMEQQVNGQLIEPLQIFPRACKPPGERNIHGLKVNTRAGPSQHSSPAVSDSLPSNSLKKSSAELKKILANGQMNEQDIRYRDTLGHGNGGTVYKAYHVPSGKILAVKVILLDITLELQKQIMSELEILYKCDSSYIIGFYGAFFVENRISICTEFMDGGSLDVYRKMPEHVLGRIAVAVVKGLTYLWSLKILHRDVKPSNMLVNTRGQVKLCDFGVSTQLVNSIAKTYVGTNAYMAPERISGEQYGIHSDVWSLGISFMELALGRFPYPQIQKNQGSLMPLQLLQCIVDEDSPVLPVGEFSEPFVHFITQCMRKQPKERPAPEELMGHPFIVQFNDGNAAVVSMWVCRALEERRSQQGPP

[9] = target: T4, Serine/threonine-protein kinase D2 (Homo sapiens) (UniProt Q9BZL6); assay: Selectivity interaction (KinomeScan (DiscoverX)) EUB0000607a PRKD2; conditions: at 10 µM
T4 sequence (whole entry): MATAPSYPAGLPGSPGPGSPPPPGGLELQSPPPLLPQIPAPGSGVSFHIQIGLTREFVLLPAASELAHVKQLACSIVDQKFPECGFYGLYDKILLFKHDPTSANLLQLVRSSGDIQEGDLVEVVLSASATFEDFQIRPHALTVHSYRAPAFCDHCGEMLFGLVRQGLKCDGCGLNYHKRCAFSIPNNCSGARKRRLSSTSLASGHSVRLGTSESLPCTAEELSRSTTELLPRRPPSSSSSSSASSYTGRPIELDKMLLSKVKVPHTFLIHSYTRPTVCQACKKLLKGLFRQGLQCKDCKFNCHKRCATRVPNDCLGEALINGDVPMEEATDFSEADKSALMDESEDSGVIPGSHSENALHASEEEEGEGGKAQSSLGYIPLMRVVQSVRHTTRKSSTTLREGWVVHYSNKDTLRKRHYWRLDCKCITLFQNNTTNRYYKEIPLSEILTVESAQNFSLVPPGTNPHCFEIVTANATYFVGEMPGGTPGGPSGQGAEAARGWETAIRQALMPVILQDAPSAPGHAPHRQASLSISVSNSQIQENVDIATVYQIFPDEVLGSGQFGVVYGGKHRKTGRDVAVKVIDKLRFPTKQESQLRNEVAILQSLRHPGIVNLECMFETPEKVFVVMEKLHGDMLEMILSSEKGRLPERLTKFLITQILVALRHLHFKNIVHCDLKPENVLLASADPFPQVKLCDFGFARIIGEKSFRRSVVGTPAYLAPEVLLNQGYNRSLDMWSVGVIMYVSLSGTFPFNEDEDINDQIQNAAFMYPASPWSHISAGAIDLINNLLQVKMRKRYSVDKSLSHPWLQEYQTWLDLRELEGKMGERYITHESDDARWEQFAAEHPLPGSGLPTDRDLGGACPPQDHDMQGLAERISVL

Chain of Homeodomain-interacting protein kinase 2 (Q9H2X6 whole entry, looked up): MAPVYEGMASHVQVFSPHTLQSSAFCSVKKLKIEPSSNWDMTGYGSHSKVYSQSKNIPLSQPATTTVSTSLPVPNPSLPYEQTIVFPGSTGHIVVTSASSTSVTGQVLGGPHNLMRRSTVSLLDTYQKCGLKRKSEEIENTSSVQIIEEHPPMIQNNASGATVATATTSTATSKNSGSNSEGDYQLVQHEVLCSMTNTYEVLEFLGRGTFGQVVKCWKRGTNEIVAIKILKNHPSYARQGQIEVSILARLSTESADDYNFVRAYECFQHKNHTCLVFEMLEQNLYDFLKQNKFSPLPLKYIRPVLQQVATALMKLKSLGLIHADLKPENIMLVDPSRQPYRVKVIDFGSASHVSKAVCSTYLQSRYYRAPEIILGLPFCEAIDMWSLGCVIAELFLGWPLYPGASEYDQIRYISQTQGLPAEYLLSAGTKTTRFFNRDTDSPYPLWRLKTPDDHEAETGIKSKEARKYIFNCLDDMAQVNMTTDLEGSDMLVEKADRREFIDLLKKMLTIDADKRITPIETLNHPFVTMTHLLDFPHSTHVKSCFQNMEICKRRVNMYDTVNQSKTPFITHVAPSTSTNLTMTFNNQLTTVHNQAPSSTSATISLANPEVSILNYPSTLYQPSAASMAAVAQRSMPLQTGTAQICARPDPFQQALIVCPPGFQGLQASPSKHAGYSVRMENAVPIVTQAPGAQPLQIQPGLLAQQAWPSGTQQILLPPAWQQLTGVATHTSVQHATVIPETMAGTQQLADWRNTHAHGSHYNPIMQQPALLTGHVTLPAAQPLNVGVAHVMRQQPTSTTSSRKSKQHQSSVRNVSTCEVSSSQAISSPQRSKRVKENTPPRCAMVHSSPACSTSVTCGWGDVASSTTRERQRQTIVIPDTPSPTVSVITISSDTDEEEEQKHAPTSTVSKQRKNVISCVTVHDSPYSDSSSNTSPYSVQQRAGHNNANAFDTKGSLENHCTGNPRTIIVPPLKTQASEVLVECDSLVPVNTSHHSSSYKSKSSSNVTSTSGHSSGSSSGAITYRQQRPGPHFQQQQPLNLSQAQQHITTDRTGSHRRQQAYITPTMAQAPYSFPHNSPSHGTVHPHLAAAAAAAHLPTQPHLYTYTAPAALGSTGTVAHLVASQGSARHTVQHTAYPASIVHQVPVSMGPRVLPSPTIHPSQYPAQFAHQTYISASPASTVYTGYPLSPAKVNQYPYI

`COc1cc(Nc2nc(C)cc(-c3cnn4nc(OC)ccc34)n2)cc(C(F)(F)F)c1` was tested, and the % of control [1] was 94%.
`O=C(NOC[C@H](O)CO)c1ccc(F)c(F)c1Nc1ccc(I)cc1F` showed a % of control [2] of 89%.
`Nc1cnc(N2CCc3cc(S(=O)(=O)Nc4c(F)cc(Cl)cc4F)cc(N4CCCC4=O)c32)nc1` [TP-020n] gave a % of control [3] of 100%, a % of control [4] of 100% and a % of control [5] of 99%. The % of control [6] was 100% and the % of control [7] was 89%.
Work on `CCC(=O)N1CCN(c2ccc(-n3c(=O)ccc4cnc5ccc(-c6cnc7ccccc7c6)cc5c43)cc2C(F)(F)F)CC1` yielded a % of control [8] of 100%.
For `CNC(=O)Nc1ccc(-c2nc(N3CC4CCC(C3)O4)c3cnn(C4CCC5(CC4)OCCO5)c3n2)cc1`, the % of control [9] was 100%.
